Measurements from ChEMBL document CHEMBL3390836, “Mannich- and LedererManasse-based analogues of the natural product S-(+)-curcuphenol as cancer proliferation and migration inhibitors” (Medchemcomm, 2012).

Legend:
[1] = system: CCRF-CEM; assay: Cytotoxicity against human CCRF-CEM cells assessed as cell growth at 10^-8 M after 48 hrs by SRB assay relative to control; type: functional; conditions: read-out: Activity
[2] = system: M14; assay: Cytotoxicity against human M14 cells assessed as cell growth at 10^-8 M after 48 hrs by SRB assay relative to control; type: functional; conditions: M14, 48 h, read-out: Activity
[3] = system: CCRF-CEM; assay: Cytotoxicity against human CCRF-CEM cells assessed as cell growth at 10^-4 M after 48 hrs by SRB assay relative to control; type: functional; conditions: read-out: Activity
[4] = system: CCRF-CEM; assay: Cytotoxicity against human CCRF-CEM cells assessed as cell growth at 10^-6 M after 48 hrs by SRB assay relative to control; type: functional; conditions: read-out: Activity
[5] = system: M14; assay: Cytotoxicity against human M14 cells assessed as cell growth at 10^-7 M after 48 hrs by SRB assay relative to control; type: functional; conditions: M14, 48 h, read-out: Activity
[6] = system: CCRF-CEM; assay: Cytotoxicity against human CCRF-CEM cells after 48 hrs by SRB assay; type: functional; conditions: read-out: LC50 (the source's name)
[7] = Cytotoxicity against human UACC257 cells assessed as cell growth at 10^-6 M after 48 hrs by SRB assay relative to control; type: functional; conditions: UACC-257, 48 h, read-out: Activity
[8] = system: RPMI-8226; assay: Cytotoxicity against human RPMI8226 cells after 48 hrs by SRB assay; type: functional; conditions: RPMI-8226, 48 h; for CC50: read-out: LC50 (the source's name)
[9] = system: M14; assay: Cytotoxicity against human M14 cells after 48 hrs by SRB assay; type: functional; conditions: M14, 48 h; for CC50: read-out: LC50 (the source's name)
[10] = Cytotoxicity against human UACC257 cells after 48 hrs by SRB assay; type: functional; conditions: UACC-257, 48 h
[11] = system: CCRF-CEM; assay: Cytotoxicity against human CCRF-CEM cells assessed as cell growth at 10^-7 M after 48 hrs by SRB assay relative to control; type: functional; conditions: read-out: Activity
[12] = system: A549; assay: Cytotoxicity against human A549 cells assessed as cell growth at 10^-4 M after 48 hrs by SRB assay relative to control; type: functional; conditions: A549, 48 h, read-out: Activity
[13] = Cytotoxicity against human UACC257 cells assessed as cell growth at 10^-8 M after 48 hrs by SRB assay relative to control; type: functional; conditions: UACC-257, 48 h, read-out: Activity
[14] = system: RPMI-8226; assay: Cytotoxicity against human RPMI8226 cells assessed as cell growth at 10^-4 M after 48 hrs by SRB assay relative to control; type: functional; conditions: RPMI-8226, 48 h, read-out: Activity
[15] = system: M14; assay: Cytotoxicity against human M14 cells assessed as cell growth at 10^-6 M after 48 hrs by SRB assay relative to control; type: functional; conditions: M14, 48 h, read-out: Activity
[16] = system: RPMI-8226; assay: Cytotoxicity against human RPMI8226 cells assessed as cell growth at 10^-7 M after 48 hrs by SRB assay relative to control; type: functional; conditions: RPMI-8226, 48 h, read-out: Activity
[17] = system: RPMI-8226; assay: Cytotoxicity against human RPMI8226 cells assessed as cell growth at 10^-6 M after 48 hrs by SRB assay relative to control; type: functional; conditions: RPMI-8226, 48 h, read-out: Activity
[18] = Cytotoxicity against human UACC257 cells assessed as cell growth at 10^-4 M after 48 hrs by SRB assay relative to control; type: functional; conditions: UACC-257, 48 h, read-out: Activity
[19] = system: DU-145; assay: Cytotoxicity against human DU145 cells assessed as cell growth at 10^-8 M after 48 hrs by SRB assay relative to control; type: functional; conditions: DU-145, 48 h, read-out: Activity
[20] = system: MOLT-4; assay: Cytotoxicity against human MOLT4 cells assessed as cell growth at 10^-4 M after 48 hrs by SRB assay relative to control; type: functional; conditions: MOLT-4, 48 h, read-out: Activity
[21] = system: BT-549; assay: Cytotoxicity against human BT549 cells after 48 hrs by SRB assay; type: functional; conditions: BT-549, 48 h; for CC50: read-out: LC50 (the source's name)
[22] = Cytotoxicity against human Hs 578T cells assessed as cell growth at 10^-7 M after 48 hrs by SRB assay relative to control; type: functional; conditions: read-out: Activity
[23] = system: BT-549; assay: Cytotoxicity against human BT549 cells assessed as cell growth at 10^-6 M after 48 hrs by SRB assay relative to control; type: functional; conditions: BT-549, 48 h, read-out: Activity
[24] = system: NCI-H522; assay: Cytotoxicity against human NCI-H522 cells assessed as cell growth at 10^-8 M after 48 hrs by SRB assay relative to control; type: functional; conditions: NCI-H522, 48 h, read-out: Activity
[25] = system: SR; assay: Cytotoxicity against human SR cells assessed as cell growth at 10^-4 M after 48 hrs by SRB assay relative to control; type: functional; conditions: read-out: Activity
[26] = system: SR; assay: Cytotoxicity against human SR cells after 48 hrs by SRB assay; type: functional; conditions: for CC50: read-out: LC50 (the source's name)
[27] = Cytotoxicity against human PC3 cells assessed as cell growth at 10^-7 M after 48 hrs by SRB assay relative to control; type: functional; conditions: PC-3, 48 h, read-out: Activity
[28] = system: NCI-H522; assay: Cytotoxicity against human NCI-H522 cells after 48 hrs by SRB assay; type: functional; conditions: NCI-H522, 48 h; for CC50: read-out: LC50 (the source's name)
[29] = system: DU-145; assay: Cytotoxicity against human DU145 cells after 48 hrs by SRB assay; type: functional; conditions: DU-145, 48 h
[30] = system: NCI-H522; assay: Cytotoxicity against human NCI-H522 cells assessed as cell growth at 10^-6 M after 48 hrs by SRB assay relative to control; type: functional; conditions: NCI-H522, 48 h, read-out: Activity
[31] = system: BT-549; assay: Cytotoxicity against human BT549 cells assessed as cell growth at 10^-4 M after 48 hrs by SRB assay relative to control; type: functional; conditions: BT-549, 48 h, read-out: Activity
[32] = system: BT-549; assay: Cytotoxicity against human BT549 cells assessed as cell growth at 10^-8 M after 48 hrs by SRB assay relative to control; type: functional; conditions: BT-549, 48 h, read-out: Activity
[33] = system: SR; assay: Cytotoxicity against human SR cells assessed as cell growth at 10^-8 M after 48 hrs by SRB assay relative to control; type: functional; conditions: read-out: Activity
[34] = system: DU-145; assay: Cytotoxicity against human DU145 cells assessed as cell growth at 10^-4 M after 48 hrs by SRB assay relative to control; type: functional; conditions: DU-145, 48 h, read-out: Activity
[35] = system: NCI-H522; assay: Cytotoxicity against human NCI-H522 cells assessed as cell growth at 10^-7 M after 48 hrs by SRB assay relative to control; type: functional; conditions: NCI-H522, 48 h, read-out: Activity
[36] = target: Proto-oncogene tyrosine-protein kinase Src (Homo sapiens, UniProt P12931); assay: Inhibition of Src (unknown origin)
Sequence of Proto-oncogene tyrosine-protein kinase Src (P12931 2-536 limits assumed): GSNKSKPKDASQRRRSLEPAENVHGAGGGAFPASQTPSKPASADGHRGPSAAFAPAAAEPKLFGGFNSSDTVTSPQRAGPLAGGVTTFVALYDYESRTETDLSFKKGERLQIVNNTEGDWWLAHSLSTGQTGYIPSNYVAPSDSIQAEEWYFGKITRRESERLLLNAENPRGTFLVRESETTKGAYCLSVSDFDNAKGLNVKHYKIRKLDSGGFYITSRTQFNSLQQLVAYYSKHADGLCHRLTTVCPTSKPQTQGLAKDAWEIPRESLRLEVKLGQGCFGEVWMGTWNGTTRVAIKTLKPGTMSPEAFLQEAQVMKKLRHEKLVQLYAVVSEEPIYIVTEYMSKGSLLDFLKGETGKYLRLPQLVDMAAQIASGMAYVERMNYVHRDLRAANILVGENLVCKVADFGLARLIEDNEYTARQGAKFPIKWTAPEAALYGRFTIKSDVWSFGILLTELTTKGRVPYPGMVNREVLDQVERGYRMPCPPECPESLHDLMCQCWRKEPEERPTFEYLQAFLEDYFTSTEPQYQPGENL

SMILES: COc1ccc(CCN2COc3c([C@@H](C)CCC=C(C)C)ccc(C)c3C2)cc1OC
- growth at 0.01 µM [1]: 96%
- growth at 0.01 µM [2]: 95%
- growth at 100 µM [3]: -29%
- growth at 1 µM [4]: 93%
- growth at 0.1 µM [5]: 97%
- CC50 [6]: > 100 µM
- growth at 1 µM [7]: 91%
- GI50 [8]: 2.09 µM
- TGI [8]: 7.67 µM
- CC50 [8]: > 100 µM
- GI50 [9]: 1.69 µM
- TGI [9]: 3.18 µM
- CC50 [9]: 5.97 µM
- GI50 [10]: 0.0283 µM
- TGI [10]: 10.9 µM
- CC50 ([10]; read-out: LC50 (the source's name)): 40.8 µM
- growth at 0.1 µM [11]: 98%
- growth at 100 µM [12]: -52%
- growth at 0.01 µM [13]: 80%
- growth at 100 µM [14]: -28%
- growth at 1 µM [15]: 92%
- growth at 0.1 µM [16]: 93%
- growth at 1 µM [17]: 78%
- growth at 100 µM [18]: -84%

SMILES: CC(C)=CCC[C@H](C)c1ccc(C)c2c1OCN(CC1CCNCC1)C2
- growth at 0.01 µM [19]: 104%
- growth at 0.01 µM [2]: 96%
- growth at 100 µM [20]: -39%
- growth at 0.1 µM [5]: 99%
- GI50 [21]: 16.9 µM
- TGI [21]: 41.6 µM
- CC50 [21]: > 100 µM
- GI50 [8]: 7.25 µM
- TGI [8]: 32.6 µM
- CC50 [8]: > 100 µM
- GI50 [9]: 10.2 µM
- TGI [9]: 24.5 µM
- CC50 [9]: 58.9 µM
- growth at 0.1 µM [22]: 102%
- growth at 1 µM [23]: 104%
- growth at 100 µM [12]: -84%
- growth at 0.01 µM [24]: 87%
- growth at 100 µM [25]: -42%
- growth at 100 µM [14]: -38%
- GI50 [26]: 2.79 µM
- TGI [26]: 9.83 µM
- CC50 [26]: > 100 µM
- growth at 1 µM [15]: 114%
- growth at 0.1 µM [27]: 100%
- GI50 [28]: 13.5 µM
- TGI [28]: 28.6 µM
- CC50 [28]: 60.4 µM
- growth at 0.1 µM [16]: 102%
- GI50 [29]: 16.4 µM
- LC50 [29]: 63.2 µM
- TGI [29]: 32.2 µM
- growth at 1 µM [30]: 97%
- growth at 100 µM [31]: -49%
- growth at 0.01 µM [32]: 94%
- growth at 1 µM [17]: 110%
- growth at 0.01 µM [33]: 95%
- growth at 100 µM [34]: -94%
- growth at 0.1 µM [35]: 88%

SMILES: CC(C)=CCC[C@H](C)c1ccc(C)c(CNCC2CCNCC2)c1O
- growth at 0.01 µM [19]: 100%
- growth at 100 µM [20]: -22%
- CC50 [6]: 1.64 µM
- growth at 1 µM [7]: 80%
- GI50 [21]: 9.72 µM
- TGI [21]: > 25 µM
- CC50 [21]: > 25 µM
- growth at 0.1 µM [22]: 91%
- growth at 1 µM [23]: 81%
- growth at 0.01 µM [24]: 98%
- growth at 0.01 µM [13]: 93%
- growth at 100 µM [25]: -50%
- GI50 [26]: 3.71 µM
- TGI [26]: 9.67 µM
- CC50 [26]: > 25 µM
- growth at 0.1 µM [27]: 99%
- GI50 [28]: 8.22 µM
- TGI [28]: > 25 µM
- CC50 [28]: > 25 µM
- GI50 [29]: 16.4 µM
- LC50 [29]: > 25 µM
- TGI [29]: > 25 µM
- growth at 1 µM [30]: 104%
- growth at 100 µM [31]: 22%
- growth at 0.01 µM [32]: 98%
- growth at 100 µM [18]: -8.3%
- growth at 0.01 µM [33]: 83%
- growth at 100 µM [34]: 41%
- growth at 0.1 µM [35]: 96%

SMILES: CC(C)=CCC[C@H](C)c1ccc(C)cc1O
- IC50 [36]: 35.8 µM
